Assay results taken from patent publication US11827724B2, “Polytetrafluoroethylene and method for producing same” (DAIKIN INDUSTRIES, LTD., priority 2009, dated 2023).
Where two headings read alike, the source gives them in different places.

Tests used:
[1] = Log POW, distribution coefficient between 1-octanol and water; conditions: fluorinated surfactants used in Examples; octanol/water (1:1)
Excerpt: The Log POW is distribution coefficient between 1-octanol and water. The Log POW is represented by Log P, wherein P is the ratio of a concentration of a fluorinated surfactant in an octanol phase to a concentration of a fluorinated surfactant in a water phase when an octanol/water (1:1) mixture containing a fluorinated surfactant is phase-separated.

[2] = PFOA, stated in description as comparison; cited from earlier work

Row | Compound | Log POW [1] | Log POW [2]
1 | N.O=C(O)C(F)(OC(F)(F)C(F)(OC(F)(F)F)C(F)(F)F)C(F)(F)F (centres unmarked) [CF3—O—CF(CF3)CF2O—CF(CF3) COONH4] | 3.4 | 
2 | N.O=C(O)C(F)(F)C(F)(F)C(F)(F)C(F)(F)C(F)(F)C(F)(F)C(F)(F)F [PFOA, perfluoro octanoic acid ammonium] |  | 3.5
